Results from patent US5977386A, “6-thio-substituted paclitaxels” (Bristol-Myers Squibb Company, priority 1997, dated 1999).
Like-named read-outs stand apart in the source and are kept apart here.

Columns and labels:
[1] = test system: HCT-116 human colon carcinoma cells; assay: MTS cytotoxicity assay (72 h exposure); type: cell-based
Method: Cytoxicity was assessed in HCT-116 human colon carcinoma cells by MTS (3-(4,5-dimethylthiazol-2-yl)-5-(3-carboxymethoxyphenyl)-2-(4-sulphenyl)-2H-tetrazolium, inner salt) assay as reported in T. L. Riss, et. al., "Comparison of MTT, XTT, and a novel tetrazolium compound MTS for in vitro proliferation and chemosensitivity assays.," Mol. Biol. Cell 3 (Suppl.):184a, 1992. Cells were plated at 4,000 cell/well in 96 well microtiter plates and 24 hours later drugs were added and serial diluted. The cells were incubated at 37° for 72 hours at which time the tetrazolium dye, MTS at 333 μg/ml (final concentration), in combination with the electron coupling agent phenazine methosulfate at 25 μM (final concentration) was added. A dehydrogenase enzyme in live cells reduces the MTS to a form that absorbs light at […] which can be quantitated spectrophotometrically. The greater the absorbance the greater the number of live cells. The results are expressed as an IC50, which is the drug concentration required to inhibit cell proliferation (i.e. absorbance at 450 nm) to 50% of that of untreated control cells. The IC50 values for compounds evaluated in this assay are evaluated in Table I.
^1 Cytotoxicity was determined after a 72 h exposure by MTS assay.

[2] = test system: M109 lung carcinoma; assay: Mice M109 Model (In-Vivo), ip M109 lung carcinoma, median survival; parameters: species or system mouse; conditions: ip M109, Balb/c×DBA/2 F1 mice, ip injections days 5 and 8 post-implant, at optimal dose
Method: Balb/c×DBA/2 F1 hybrid mice were implanted intraperitoneally, as described by William Rose in Evaluation of Madison 109 Lung Carcinoma as a Model for Screening Antitumor Drugs, Cancer Treatment Reports, 65, No. 3-4 (1981), with 0.5 mL of a 2% (w/v) brei of M109 lung carcinoma.
Mice were treated with compounds under study by receiving intraperitoneal injections of various doses on days 5 and 8 post-implant. Mice were followed daily for survival until approximately 75 days post-tumor implant. One group of mice per experiment remained untreated and served as the control group.
Median survival times of compound-treated (T) mice were compared to the median survival time of the control (C) mice. The ratio of the two values for each compound-treated group of mice was multiplied by 100 and expressed as a percentage (i.e. % T/C) in the following Table II for representative compounds.
(§1) ^a Optimal dose (mg/kg/inj) if active, otherwise, maximal tolerated
(§2) dose (MTD) or highest dose tested.

[3] = test system: M5076 murine sarcoma; assay: sc M5076 murine sarcoma model, tumor growth delay; type: in vivo; conditions: sc M5076, iv on days 1, 3, 5, 7, and 9 post-implant, at optimal dose
Method: M5076: Taxane derivatives were tested in the M5076 murine sarcoma model using the general materials and methods described by Rose, W. C. in Anticancer Research 6: 557-562, 1986, for subcutaneous M5076 implants, with the following modifications: treatments were administered intravenously on Days 1, 3, 5, 7, and 9 post-tumor implant using eight mice per treatment and untreated control group. Activity was determined based on an increase in lifespan (as described in the preceding reference) of […], and, in particular, on a delay in tumor growth equivalent to at least 1 gross log cell kill (LCK). The latter was calculated as described in Rose, W. C. and Basler, G. A. in In Vivo 4: 391-396, 1990.
as §1, §2

[4] = Homo sapiens, HCT-116, 72 h, read-out: Cytotoxicity Assay IC50 against HCT 116 Human colon tumor cell line

Row | Compound | IC50 ([1]; Homo sapiens, HCT-116, read-out: Cytotoxicity Assay IC50 against HCT 116 Human colon tumor cell line) | Maximum % T/C (ratio of median survival times treated/control x 100) [2] | Maximum T-C in LCK (gross log cell kill) [3] | IC50 [1, 4] | IC50 ([1]; 4320 min, read-out: Cytotoxicity Assay IC50 against HCT 116 Human colon tumor cell line)
1 | CC(=O)O[C@H]1C(=O)[C@]2(C)C[C@@H](S(C)(=O)=O)[C@H]3OC[C@@]3(OC(C)=O)[C@H]2[C@H](OC(=O)c2ccccc2)[C@]2(O)C[C@H](OC(=O)[C@H](O)[C@@H](NC(=O)c3ccccc3)c3ccccc3)C(C)=C1C2(C)C [Compound 21, 7-deoxy6β-methyl sulfone-paclitaxel] | > 109 nM | 147% | 0 LCK | – | –
2 | CC(=O)CS[C@@H]1C[C@@]2(C)C(=O)[C@H](OC(C)=O)C3=C(C)[C@@H](OC(=O)[C@H](O)[C@@H](NC(=O)c4ccccc4)c4ccccc4)C[C@@](O)([C@@H](OC(=O)c4ccccc4)[C@@H]2[C@]2(OC(C)=O)CO[C@H]12)C3(C)C [Compound 34, 6-b-thiomethyl methyl keto-7-deoxytaclitaxel] | – | 168% | – | 1.2 nM | –
3 | CC(=O)O[C@H]1C(=O)[C@]2(C)C[C@@H]([S+](C)[O-])[C@H]3OC[C@@]3(OC(C)=O)[C@H]2[C@H](OC(=O)c2ccccc2)[C@]2(O)C[C@H](OC(=O)[C@H](O)[C@@H](NC(=O)c3ccccc3)c3ccccc3)C(C)=C1C2(C)C (single isomer, unassigned) [Compound 19, 7-deoxy-6β-methyl sulfoxide-paclitaxel] | – | 169% | 0.4 LCK | – | 50.9 nM
4 | C=CCOC(=O)CS[C@@H]1C[C@@]2(C)C(=O)[C@H](OC(C)=O)C3=C(C)[C@@H](OC(=O)[C@H](O)[C@@H](NC(=O)c4ccccc4)c4ccccc4)C[C@@](O)([C@@H](OC(=O)c4ccccc4)[C@@H]2[C@]2(OC(C)=O)CO[C@H]12)C3(C)C [Compound 42, 7-deoxy-6b-allyl thioacetatepaclitaxel] | – | 106% | – | 9 nM | –
5 | CC(=O)O[C@H]1C(=O)[C@]2(C)C[C@@H](SC#N)[C@H]3OC[C@@]3(OC(C)=O)[C@H]2[C@H](OC(=O)c2ccccc2)[C@]2(O)C[C@H](OC(=O)[C@H](O)[C@@H](NC(=O)c3ccccc3)c3ccccc3)C(C)=C1C2(C)C [Compound 17, 7-deoxy-6β-thiocyanato-paclitaxel] | – | 194% | 0.7 LCK | 3.8 nM | –
